Test results: patent US9028463B2 (priority 2008, dated 2015)

Assays:
type A strain (H1N1) = test system: type A strain (H1N1); set-up: species or system ddY mice; conditions: mouse, in vivo
type B strain = test system: type B strain; set-up: species or system ddY mice; conditions: mouse, in vivo

CCCCCCCCCCCCO [lauryl alcohol]
HI antibody titer for type A with lauryl alcohol as adjuvant in combination (type A strain (H1N1)): HI antibody titer for type A increased | HI antibody titer for type B with lauryl alcohol as adjuvant in combination (type B strain): remarkable effect was exerted on type B
